Test results as given in patent US20170000129A1, “METHOD FOR TREATING MINERAL SLURRIES WITH A BIOCIDE” (priority 2015, published 2017).

Columns and labels:
[1] = test system: bacterial growth in kaolin slurry; assay: Kaolin slurry preservation test: biocide-dosed 65% solids slurry plated on standard method agar, samples as treated; type: cell-based, bacteria
Description: (§1) In the comparative testing, dry kaolin was mixed with water to achieve a 65% solid slurry material. This material contained no biocide. The slurry was then split into 200 gram aliquots and dosed with different biocides at different concentration as shown in Tables 1-3. All samples were kept at 50° C. until the end of the testing, which was up to 28 days.
A number of different and known biocides were used in the study and they include glutaraldehyde (glute), 1,2 benzithiazolin-3-one (BIT), tetrahydro-3-5-methyl-2H-1,3,5-thiadizine-2-thione (thione), isothiazoline (ISO), bronopol (BNPD) or orthophenyl phenate (OPP). For shorthand purposes, the study refers to the tradename of the biocide, which is found in the above listing of the biocides. Metam sodium is designated as SMDC and MDTCMA is used without change
(§2) The protocol for the testing of each sample is as follows: • 1) dosed with a recorded level of biocide; • 2) mixed for 24 hours contact time and plated using standard method agar for bacterial growth; • 3) remixed daily for 1 hour and retested for bacterial growth at Day 3; • 4) remixed daily for 1 hour and retested for bacterial growth at Day 7; • 5) remixed daily for 1 hour and retested for bacterial growth at Day 14; • 6) on day 20, samples were split into two containers: one container was inoculated (or challenged) with ˜10^5 cfu/ml bacteria, the other was left “as treated”, the challenge material was obtained from a contaminated kaolin product and is assumed to be representative of the types of bacteria that are seen in the kaolin industry, and the two sets of samples were prepared for Day 21 testing; • 7) both sets were remixed daily for 1 hour and retested for bacterial growth at Day 21; and • 8) both sets remixed daily for 1 hour and retested for bacterial growth at Day 28.
Different contact times were used to see how quickly the bacterial population was effected by the biocide.

[2] = test system: bacteria from a contaminated kaolin product; assay: Kaolin slurry preservation test, challenge: on day 20 samples inoculated with ~10^5 cfu/ml bacteria from a contaminated kaolin product; type: cell-based
Description: as §1, §2

SMILES: CNC(=S)[S-].[Na+] [42% SMDC, sodium N-methyldithiocarbamate]
- Log Red, contact time 1 day ([1]; 500 ppm, Table 1): 0
- Log Red, contact time 3 day ([1]; 500 ppm, Table 1): 1
- Log Red, contact time 7 day ([1]; 500 ppm, Table 1): 3
- cfu/mL, contact time 1 day ([1]; 500 ppm, Table 1): 24,340,000 cfu/mL
- cfu/mL, contact time 3 day ([1]; 500 ppm, Table 1): 2,600,000 cfu/mL
- cfu/mL, contact time 7 day ([1]; 500 ppm, Table 1): 30,000 cfu/mL
- performance against the BIT biocide when measuring log reduction ([1]; 500 ppm, Table 1): performed at least as well as the BIT biocide
- Log Red, contact time 1 day ([1]; 500 ppm, Table 2): 0
- Log Red, contact time 3 day ([1]; 500 ppm, Table 2): 2
- Log Red, contact time 7 day ([1]; 500 ppm, Table 2): 4
- Log Red, contact time 14 day ([1]; 500 ppm, Table 2): 4
- Log Red, contact time 21 day ([1]; 500 ppm, Table 2): 5
- Log Red, contact time 28 day ([1]; 500 ppm, Table 2): 4
- cfu/mL, contact time 1 day ([1]; 500 ppm, Table 2): 19,630,000 cfu/mL
- cfu/mL, contact time 3 day ([1]; 500 ppm, Table 2): 780,002 cfu/mL
- cfu/mL, contact time 7 day ([1]; 500 ppm, Table 2): 4,000 cfu/mL
- cfu/mL, contact time 14 day ([1]; 500 ppm, Table 2): 3,000 cfu/mL
- cfu/mL, contact time 21 day ([1]; 500 ppm, Table 2): 1,800 cfu/mL
- cfu/mL, contact time 28 day ([1]; 500 ppm, Table 2): 1,800 cfu/mL
- Log Red, contact time 1 day ([1]; 1000 ppm, Table 1): 0
- Log Red, contact time 3 day ([1]; 1000 ppm, Table 1): 1
- Log Red, contact time 7 day ([1]; 1000 ppm, Table 1): 5
- cfu/mL, contact time 1 day ([1]; 1000 ppm, Table 1): 16,880,000 cfu/mL
- cfu/mL, contact time 3 day ([1]; 1000 ppm, Table 1): 2,200,000 cfu/mL
- cfu/mL, contact time 7 day ([1]; 1000 ppm, Table 1): 1,000 cfu/mL
- performance against the BIT biocide when measuring log reduction ([1]; 1000 ppm, Table 1): far superior
- Log Red, contact time 1 day ([1]; 1000 ppm, Table 2): 0
- Log Red, contact time 3 day ([1]; 1000 ppm, Table 2): 4
- Log Red, contact time 7 day ([1]; 1000 ppm, Table 2): 4
- Log Red, contact time 14 day ([1]; 1000 ppm, Table 2): 4
- Log Red, contact time 21 day ([1]; 1000 ppm, Table 2): 5
- Log Red, contact time 28 day ([1]; 1000 ppm, Table 2): 4
- cfu/mL, contact time 1 day ([1]; 1000 ppm, Table 2): 12,560,000 cfu/mL
- cfu/mL, contact time 3 day ([1]; 1000 ppm, Table 2): 4,800 cfu/mL
- cfu/mL, contact time 7 day ([1]; 1000 ppm, Table 2): 2,400 cfu/mL
- cfu/mL, contact time 14 day ([1]; 1000 ppm, Table 2): 2,600 cfu/mL
- cfu/mL, contact time 21 day ([1]; 1000 ppm, Table 2): 900 cfu/mL
- cfu/mL, contact time 28 day ([1]; 1000 ppm, Table 2): 900 cfu/mL
- Log Red, contact time 1 day ([1]; 1000 ppm, Table 3): 3
- Log Red, contact time 3 day ([1]; 1000 ppm, Table 3): 2
- Log Red, contact time 7 day ([1]; 1000 ppm, Table 3): 2
- Log Red, contact time 14 day ([1]; 1000 ppm, Table 3): 3
- Log Red, contact time 21 day ([1]; 1000 ppm, Table 3): 2
- Log Red, contact time 28 day ([1]; 1000 ppm, Table 3): 2
- cfu/mL, contact time 1 day ([1]; 1000 ppm, Table 3): 200 cfu/mL
- cfu/mL, contact time 3 day ([1]; 1000 ppm, Table 3): 100 cfu/mL
- cfu/mL, contact time 7 day ([1]; 1000 ppm, Table 3): 100 cfu/mL
- cfu/mL, contact time 14 day ([1]; 1000 ppm, Table 3): 100 cfu/mL
- cfu/mL, contact time 21 day ([1]; 1000 ppm, Table 3): 100 cfu/mL
- cfu/mL, contact time 28 day ([1]; 1000 ppm, Table 3): 100 cfu/mL
- Log Red, contact time 1 day ([1]; 1500 ppm, Table 3): 3
- Log Red, contact time 3 day ([1]; 1500 ppm, Table 3): 2
- Log Red, contact time 7 day ([1]; 1500 ppm, Table 3): 2
- Log Red, contact time 14 day ([1]; 1500 ppm, Table 3): 3
- Log Red, contact time 21 day ([1]; 1500 ppm, Table 3): 2
- Log Red, contact time 28 day ([1]; 1500 ppm, Table 3): 2
- cfu/mL, contact time 1 day ([1]; 1500 ppm, Table 3): 100 cfu/mL
- cfu/mL, contact time 3 day ([1]; 1500 ppm, Table 3): 100 cfu/mL
- cfu/mL, contact time 7 day ([1]; 1500 ppm, Table 3): 100 cfu/mL
- cfu/mL, contact time 14 day ([1]; 1500 ppm, Table 3): 100 cfu/mL
- cfu/mL, contact time 21 day ([1]; 1500 ppm, Table 3): 100 cfu/mL
- cfu/mL, contact time 28 day ([1]; 1500 ppm, Table 3): 100 cfu/mL
- biocide efficacy compared with known biocides ([1]; Table 2, up to 28 days): comparable biocide efficacy as compared to known biocides
- biocide effectiveness compared with thione ([1]; Table 3, up to the 28 day testing, not challenge testing, 1000 and 1500 ppm): performed on a par with the thione
- Log Red, 21 day Challenge ([2]; 500 ppm, Table 2): 3
- Log Red, 28 day Challenge ([2]; 500 ppm, Table 2): 3
- cfu/mL, 21 day Challenge ([2]; 500 ppm, Table 2): 105,000 cfu/mL
- cfu/mL, 28 day Challenge ([2]; 500 ppm, Table 2): 16,000 cfu/mL
- Log Red, 21 day Challenge ([2]; 1000 ppm, Table 2): 3
- Log Red, 28 day Challenge ([2]; 1000 ppm, Table 2): 3
- cfu/mL, 21 day Challenge ([2]; 1000 ppm, Table 2): 59,000 cfu/mL
- cfu/mL, 28 day Challenge ([2]; 1000 ppm, Table 2): 16,000 cfu/mL
- Log Red, 21 day Challenge ([2]; 1000 ppm, Table 3): 2
- Log Red, 28 day Challenge ([2]; 1000 ppm, Table 3): 1
- cfu/mL, 21 day Challenge ([2]; 1000 ppm, Table 3): 384,000 cfu/mL
- cfu/mL, 28 day Challenge ([2]; 1000 ppm, Table 3): 3,000,000 cfu/mL
- Log Red, 21 day Challenge ([2]; 1500 ppm, Table 3): 5
- Log Red, 28 day Challenge ([2]; 1500 ppm, Table 3): 5
- cfu/mL, 21 day Challenge ([2]; 1500 ppm, Table 3): 100 cfu/mL
- cfu/mL, 28 day Challenge ([2]; 1500 ppm, Table 3): 100 cfu/mL
- biocide effectiveness in challenge testing ([2]; Table 3, challenge testing): comparable to thione
- biocide effectiveness after inoculation, overall result of the studies ([2]; after inoculation): most effective biocides
